From patent US9951077B2, “Aminopyridazinone compounds as protein kinase inhibitors” (ETERNITY BIOSCIENCE INC., priority 2014, dated 2018)

target: Btk (Homo sapiens (Human), UniProt Q06187); experiment: Btk kinase assay (ADP-Glo); assay type: biochemical; conditions: ATP 1.2 μM, 60 minutes, room temperature; read-out: BTK enzyme IC50
Procedure: The Btk kinase assay was performed using a ADP-Glo Btk kinase assay kit purchased from Promega (Madison, Wis.). The assay was conducted according to the protocols provided in the assay kit. In brief, the enzyme reaction was carried out in the kinase reaction buffer containing Btk (2 ng/μl), ATP (1.2 μM), poly GT peptide (0.3 μM), DTT (40 nM), MnCl2 (1.4 mM), and 1×kinase buffer (included in the kit) in the presence or absence of the tested articles at various concentrations in 384-well plate at room temperature (22±1° C.) for 60 minutes. The final reaction volume for each reaction was 10 μl. Then, 4 μl of ADP-Glo reagent (included in the kit) was added into the reaction and the plate was further incubated for another 40 minutes to terminate the reaction and deplete the remaining ATP. Finally, 10 μl of the kinase detection reagent was added into each reaction to simultaneously convert ADP to ATP and allow the newly synthesized ATP to be measured by a plate-reading luminometer (Victor X5 2030 multilabel reader, PerkinElmer). IC50 value was calculated using appropriate programs in GraphPad Prism by plotting the logarithm of the concentration versus percent inhibition as compared with a vehicle (DMSO) control.

Btk, sequence (Q06187 whole entry): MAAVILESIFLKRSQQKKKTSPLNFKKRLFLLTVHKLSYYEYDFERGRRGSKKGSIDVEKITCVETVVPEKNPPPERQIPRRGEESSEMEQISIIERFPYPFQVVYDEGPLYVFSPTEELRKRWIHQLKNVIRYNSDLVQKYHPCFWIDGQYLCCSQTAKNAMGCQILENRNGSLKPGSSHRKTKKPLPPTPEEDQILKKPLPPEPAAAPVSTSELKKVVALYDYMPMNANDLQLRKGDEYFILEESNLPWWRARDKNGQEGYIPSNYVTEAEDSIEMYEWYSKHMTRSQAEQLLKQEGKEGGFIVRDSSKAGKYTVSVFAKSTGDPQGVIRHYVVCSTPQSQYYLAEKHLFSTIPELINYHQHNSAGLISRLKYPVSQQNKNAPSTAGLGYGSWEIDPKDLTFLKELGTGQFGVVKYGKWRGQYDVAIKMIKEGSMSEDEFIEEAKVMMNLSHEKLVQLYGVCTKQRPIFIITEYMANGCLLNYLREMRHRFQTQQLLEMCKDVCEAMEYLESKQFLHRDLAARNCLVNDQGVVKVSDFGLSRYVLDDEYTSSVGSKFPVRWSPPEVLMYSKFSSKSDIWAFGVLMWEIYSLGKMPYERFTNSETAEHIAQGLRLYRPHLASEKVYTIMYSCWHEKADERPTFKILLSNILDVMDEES

SMILES | IC50 [nM]
CN(C)C/C=C/C(=O)N1CCCC(n2cc(-c3ccc(Oc4cccc(Cl)c4)cc3)c3c(N)n[nH]c(=O)c32)C1 (stereo not shown) [Example 67, 4-amino-3-[4-(3-chlorophenoxy)phenyl]-1-[1-[(E)-4-(dimethylamino)but-2-enoyl]-3-piperidyl]-6H-pyrrolo[2,3-d]pyridazin-7-one] | ≤ 10
C=CC(=O)N1CCCC(n2cc(-c3ccc(Oc4cccc(Cl)c4)c(OC)c3)c3c(N)n[nH]c(=O)c32)C1 (stereo not shown) [Example 68, 1-(1-acryloylpiperidin-3-yl)-4-amino-3-(4-(3-chlorophenoxy)-3-methoxyphenyl)-1H-pyrrolo[2,3-d]pyridazin-7(6H)-one] | 10 to 1000
COc1cc(-c2cn(C3CCCN(C(=O)/C=C/CN(C)C)C3)c3c(=O)[nH]nc(N)c23)ccc1Oc1cccc(Cl)c1 (stereo not shown) [Example 69, 4-amino-3-[4-(3-chlorophenoxy)-3-methoxy-phenyl]-1-[1-[(E)-4-(dimethylamino)but-2-enoyl]-3-piperidyl]-6H-pyrrolo[2,3-d]pyridazin-7-one] | ≤ 10
C=CC(=O)N1CCC[C@@H](n2cc(-c3ccc(Oc4ccccc4Cl)cc3)c3c(N)n[nH]c(=O)c32)C1 [Example 70, (R)-1-(1-acryloylpiperidin-3-yl)-4-amino-3-(4-(2-chlorophenoxy)phenyl)-1H-pyrrolo[2,3-d]pyridazin-7(6H)-one] | 10 to 1000
CN(C)C/C=C/C(=O)N1CCC[C@@H](n2cc(-c3ccc(Oc4ccccc4Cl)cc3)c3c(N)n[nH]c(=O)c32)C1 [Example 71, 4-amino-3-[4-(2-chlorophenoxy)phenyl]-1-[(3R)-1-[(E)-4-(dimethylamino)but-2-enoyl]-3-piperidyl]-6H-pyrrolo[2,3-d]pyridazin-7-one] | ≤ 10
C=CC(=O)N1CCC[C@@H](n2cc(-c3ccc(Oc4ccc(Cl)c(Cl)c4)c(OC)c3)c3c(N)n[nH]c(=O)c32)C1 [Example 72, (R)-1-(1-acryloylpiperidin-3-yl)-4-amino-3-(4-(3,4-dichlorophenoxy)-3-methoxyphenyl)-1H-pyrrolo[2,3-d]pyridazin-7(6H)-one] | 10 to 1000
COc1cc(-c2cn([C@@H]3CCCN(C(=O)/C=C/CN(C)C)C3)c3c(=O)[nH]nc(N)c23)ccc1Oc1ccc(Cl)c(Cl)c1 [Example 73, 4-amino-3-[4-(3,4-dichlorophenoxy)-3-methoxy-phenyl]-1-[(3R)-1-[(E)-4-(dimethylamino)but-2-enoyl]-3-piperidyl]-6H-pyrrolo[2,3-d]pyridazin-7-one] | 10 to 1000
C=CC(=O)N1CCC[C@@H](n2cc(-c3ccc(Oc4ccccc4)c(F)c3)c3c(N)n[nH]c(=O)c32)C1 [Example 74, (R)-1-(1-acryloylpiperidin-3-yl)-4-amino-3-(3-fluoro-4-phenoxyphenyl)-1H-pyrrolo[2,3-d]pyridazin-7(6H)-one] | 10 to 1000
CN(C)C/C=C/C(=O)N1CCC[C@@H](n2cc(-c3ccc(Oc4ccccc4)c(F)c3)c3c(N)n[nH]c(=O)c32)C1 [Example 75, 4-amino-1-[(3R)-1-[(E)-4-(dimethylamino)but-2-enoyl]-3-piperidyl]-3-(3-fluoro-4-phenoxy-phenyl)-6H-pyrrolo[2,3-d]pyridazin-7-one] | ≤ 10
C=CC(=O)N1CCC[C@@H](n2cc(-c3ccc(Oc4ccccc4)cc3F)c3c(N)n[nH]c(=O)c32)C1 [Example 76, (R)-1-(1-acryloylpiperidin-3-yl)-4-amino-3-(2-fluoro-4-phenoxyphenyl)-1H-pyrrolo[2,3-d]pyridazin-7(6H)-one] | 10 to 1000
CN(C)C/C=C/C(=O)N1CCC[C@@H](n2cc(-c3ccc(Oc4ccccc4)cc3F)c3c(N)n[nH]c(=O)c32)C1 [Example 77, 4-amino-1-[(3R)-1-[(E)-4-(dimethylamino)but-2-enoyl]-3-piperidyl]-3-(2-fluoro-4-phenoxy-phenyl)-6H-pyrrolo[2,3-d]pyridazin-7-one] | ≤ 10
C=CC(=O)N1CCC[C@@H](n2cc(-c3ccc(Oc4c(F)cccc4Cl)cc3)c3c(N)n[nH]c(=O)c32)C1 [Example 78, (R)-1-(1-acryloylpiperidin-3-yl)-4-amino-3-(4-(2-chloro-6-fluorophenoxy)phenyl)-1H-pyrrolo[2,3-d]pyridazin-7(6H)-one] | ≤ 10
CN(C)C/C=C/C(=O)N1CCC[C@@H](n2cc(-c3ccc(Oc4c(F)cccc4Cl)cc3)c3c(N)n[nH]c(=O)c32)C1 [Example 79, 4-amino-3-[4-(2-chloro-6-fluoro-phenoxy)phenyl]-1-[(3R)-1-[(E)-4-(dimethylamino)but-2-enoyl]-3-piperidyl]-6H-pyrrolo[2,3-d]pyridazin-7-one] | ≤ 10
C=CC(=O)N1CCC[C@@H](n2c(Cl)c(-c3ccc(Oc4ccccc4)cc3)c3c(N)n[nH]c(=O)c32)C1 [Example 80, (R)-1-(1-acryloylpiperidin-3-yl)-4-amino-2-chloro-3-(4-phenoxyphenyl)-1H-pyrrolo[2,3-d]pyridazin-7(6H)-one] | 10 to 1000
C=CC(=O)N1CCC[C@@H](n2c(F)c(-c3ccc(Oc4ccccc4)cc3)c3c(N)n[nH]c(=O)c32)C1 [Example 81, (R)-1-(1-acryloylpiperidin-3-yl)-4-amino-2-fluoro-3-(4-phenoxyphenyl)-1H-pyrrolo[2,3-d]pyridazin-7(6H)-one] | 10 to 1000
CN(C)C/C=C/C(=O)N1CCC[C@@H](n2c(F)c(-c3ccc(Oc4ccccc4)cc3)c3c(N)n[nH]c(=O)c32)C1 [Example 82, 4-amino-1-[(3R)-1-[(E)-4-(dimethylamino)but-2-enoyl]-3-piperidyl]-2-fluoro-3-(4-phenoxyphenyl)-6H-pyrrolo[2,3-d]pyridazin-7-one] | ≤ 10
C=CC(=O)N1CCC[C@@H](n2c(Cl)c(-c3ccc(Oc4ccccc4F)cc3)c3c(N)n[nH]c(=O)c32)C1 [Example 83, (R)-1-(1-acryloylpiperidin-3-yl)-4-amino-2-chloro-3-(4-(2-fluorophenoxy)phenyl)-1H-pyrrolo[2,3-d]pyridazin-7(6H)-one] | 1000 to 100000
N#CN1CCC[C@@H](n2cc(-c3ccc(Oc4c(F)cccc4F)cc3)c3c(N)n[nH]c(=O)c32)C1 [Example 84, (R)-3-(4-amino-3-(4-(2,6-difluorophenoxy)phenyl)-7-oxo-6,7-dihydro-1H-pyrrolo[2,3-d]pyridazin-1-yl)piperidine-1-carbonitrile] | 10 to 1000
N#CN1CCC[C@@H](n2cc(-c3ccc(Oc4ccccc4)c(F)c3)c3c(N)n[nH]c(=O)c32)C1 [Example 85, (R)-3-(4-amino-3-(3-fluoro-4-phenoxyphenyl)-7-oxo-6,7-dihydro-1H-pyrrolo[2,3-d]pyridazin-1-yl)piperidine-1-carbonitrile] | 10 to 1000
N#CN1CCC[C@@H](n2c(Cl)c(-c3ccc(Oc4ccccc4F)cc3)c3c(N)n[nH]c(=O)c32)C1 [Example 86, (R)-3-(4-amino-2-chloro-3-(4-(2-fluorophenoxy)phenyl)-7-oxo-6,7-dihydro-1H-pyrrolo[2,3-d]pyridazin-1-yl)piperidine-1-carbonitrile] | 1000 to 100000
N#CN1CCC[C@@H](n2cc(-c3ccc(Oc4ccccc4F)cc3)c3c(N)n[nH]c(=O)c32)C1 [Example 87, (R)-3-(4-amino-3-(4-(2-fluorophenoxy)phenyl)-7-oxo-6,7-dihydro-1H-pyrrolo[2,3-d]pyridazin-1-yl)piperidine-1-carbonitrile] | ≤ 10
C=CC(=O)Nc1cccc(-n2cc(-c3ccc(Oc4ccccc4)cc3)c3c(N)n[nH]c(=O)c32)c1 [Example 88, N-(3-(4-amino-7-oxo-3-(4-phenoxyphenyl)-6,7-dihydro-1H-pyrrolo[2,3-d]pyridazin-1-yl)phenyl)acrylamide] | ≤ 10
